Source: paper PMC3492916 (Molecular Nutrition & Food Research, 2011)
Entries after “also recorded” stand apart in the source; their conditions may differ.

Experiments:
[1] = tested on: PBCEC monolayers; assay: Permeability across PBCEC monolayers on Transwell filters; conditions: apical addition; for Time of maximum of permeation into basolateral compartment / Maximum of permeation into basolateral compartment: EM and ET 10 μM, EC 1 μM; for Maximum of permeation into basolateral compartment: t = 0 h as 100%
[2] = as above; conditions: pig
[3] = tested on: PBCEC monolayer; assay: TEER measurement; format: cell-based, porcine; conditions: for Influence on barrier integrity (TEER): 10 μM (a) or 10 μM (a/b), in comparison to the control
[4] = tested on: PBCEC; assay: Cytotoxicity; format: cell-based, porcine; conditions: 24 h; for Impact on cell viability (CCK-8 assay): up to a concentration of 20 mM (so in the source), with corresponding -inine form
[5] = tested on: PBCEC; assay: Fluorescence microscopy of occludin and cell nuclei; format: cell-based, porcine; conditions: 10 μM a/b, 24 h
[6] = tested on: PBCEC monolayers; assay: Active transport study, equal concentrations in both compartments; conditions: for Enrichment of substance concentration in one compartment: ET 10 μM, EC 1 μM a/b, over 48 h
[7] = as above; conditions: pig, PBCEC monolayers
[8] = biological target: P-glycoprotein (Sus scrofa, UniProt K7GMM7); assay: Active transport study with inhibitor PSC 833; format: in vitro ADME, porcine
Sequence of P-glycoprotein (K7GMM7 1-1248): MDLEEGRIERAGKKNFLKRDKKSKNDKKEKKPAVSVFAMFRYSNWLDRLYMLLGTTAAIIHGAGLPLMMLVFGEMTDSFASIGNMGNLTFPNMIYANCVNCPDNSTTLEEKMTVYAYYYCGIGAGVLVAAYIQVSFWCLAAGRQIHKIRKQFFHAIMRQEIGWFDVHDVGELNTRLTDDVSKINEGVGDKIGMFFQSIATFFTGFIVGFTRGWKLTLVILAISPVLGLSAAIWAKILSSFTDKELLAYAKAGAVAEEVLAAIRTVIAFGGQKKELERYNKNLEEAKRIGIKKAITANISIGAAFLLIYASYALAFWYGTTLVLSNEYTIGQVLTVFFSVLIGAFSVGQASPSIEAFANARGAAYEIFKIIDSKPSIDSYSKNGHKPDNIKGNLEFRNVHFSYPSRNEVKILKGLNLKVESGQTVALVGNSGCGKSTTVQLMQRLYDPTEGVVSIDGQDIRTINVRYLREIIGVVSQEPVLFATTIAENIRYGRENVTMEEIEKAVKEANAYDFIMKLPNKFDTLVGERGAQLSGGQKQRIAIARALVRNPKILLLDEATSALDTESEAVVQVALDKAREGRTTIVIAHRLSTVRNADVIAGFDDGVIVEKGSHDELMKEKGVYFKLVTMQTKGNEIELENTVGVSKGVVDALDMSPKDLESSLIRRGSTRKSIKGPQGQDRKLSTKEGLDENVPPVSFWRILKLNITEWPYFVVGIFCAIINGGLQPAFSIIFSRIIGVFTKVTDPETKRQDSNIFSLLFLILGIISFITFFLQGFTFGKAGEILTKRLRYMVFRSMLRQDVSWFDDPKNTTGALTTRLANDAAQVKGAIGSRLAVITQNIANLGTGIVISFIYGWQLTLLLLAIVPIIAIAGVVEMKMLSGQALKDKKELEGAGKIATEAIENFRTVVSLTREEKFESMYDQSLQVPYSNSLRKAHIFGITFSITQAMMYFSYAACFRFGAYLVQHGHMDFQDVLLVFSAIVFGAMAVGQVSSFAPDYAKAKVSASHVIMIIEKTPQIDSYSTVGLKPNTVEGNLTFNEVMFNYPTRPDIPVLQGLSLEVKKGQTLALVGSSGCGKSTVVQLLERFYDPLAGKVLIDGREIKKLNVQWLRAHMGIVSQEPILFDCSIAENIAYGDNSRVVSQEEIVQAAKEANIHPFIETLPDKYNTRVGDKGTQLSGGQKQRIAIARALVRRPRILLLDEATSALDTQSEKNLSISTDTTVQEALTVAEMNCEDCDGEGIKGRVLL

[9] = biological target: T1, BCRP/ABCG2 (Sus scrofa, UniProt Q8MIB3); assay: Active transport study with inhibitor Fumitremorgin C; format: in vitro ADME, porcine
T1 sequence (Q8MIB3 1-656): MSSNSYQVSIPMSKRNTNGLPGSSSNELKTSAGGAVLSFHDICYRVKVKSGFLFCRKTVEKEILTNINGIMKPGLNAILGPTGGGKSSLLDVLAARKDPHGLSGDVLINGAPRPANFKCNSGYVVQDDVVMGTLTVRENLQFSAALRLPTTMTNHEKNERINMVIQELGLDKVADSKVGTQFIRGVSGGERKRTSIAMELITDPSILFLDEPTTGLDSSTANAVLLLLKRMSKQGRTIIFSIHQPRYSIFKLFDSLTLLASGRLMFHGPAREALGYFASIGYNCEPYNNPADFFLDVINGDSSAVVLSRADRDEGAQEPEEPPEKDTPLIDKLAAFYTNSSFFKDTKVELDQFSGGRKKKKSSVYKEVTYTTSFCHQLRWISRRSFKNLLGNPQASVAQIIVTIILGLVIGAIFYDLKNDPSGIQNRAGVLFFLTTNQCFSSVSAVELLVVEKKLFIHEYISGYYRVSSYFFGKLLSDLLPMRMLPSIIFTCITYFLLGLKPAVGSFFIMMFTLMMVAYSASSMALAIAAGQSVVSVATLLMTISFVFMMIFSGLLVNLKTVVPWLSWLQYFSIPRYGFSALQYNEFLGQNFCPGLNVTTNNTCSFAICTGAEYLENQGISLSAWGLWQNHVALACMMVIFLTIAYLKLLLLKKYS

[10] = tested on: Pgp; conditions: cited from earlier work
[11] = cited from earlier work
[12] = tested on: Caco-2; conditions: Caco-2 model, after 6 h; cited from earlier work
[13] = 10 μM inhibitor a/b, preincubated 1 h, EM 10 μM a/b

CC(C)[C@@]1(NC(=O)[C@@H]2C=C3c4cccc5[nH]cc(c45)C[C@H]3N(C)C2)O[C@@]2(O)[C@@H]3CCCN3C(=O)[C@H](Cc3ccccc3)N2C1=O [EC, ergocristine]
Concentration in basolateral compartment ([1]; 1 μM, after 24 h): 32%
Time of maximum of permeation into basolateral compartment [1]: 6 h
Maximum of permeation into basolateral compartment [1]: 49%
Papp A→B [2]: 20.5 ×10⁻⁶ cm/s
Papp B→A [2]: 26.1 ×10⁻⁶ cm/s
Effect on barrier integrity (TEER) ([3]; 1 μM (a)): no effect
TEER, % of initial TEER ([3]; 1 μM (a/b)): about 80%
TEER, % of initial TEER ([3]; 5 μM (a)): about 80%
TEER, % of the starting value ([3]; 5 μM (a/b)): 50–70%
TEER, % of the starting value ([3]; 5 μM (b)): 50–70%
TEER, % of the starting value ([3]; 10 μM (a)): 50–70%
TEER, % of the starting value ([3]; 10 μM (b)): 50–70%
TEER of incubated samples ([3]; 10 mM (so in the source) a/b, 24 h, samples of immunostaining, control >1000): < 200 Ωcm^2
Concentration at which significant differences in cell viability start ([4]; CCK-8): 5 µM
Concentration at which significant results in cell viability start ([4]; CCK-8, Figure 2 legend): 5000 µM
Cell viability (CCK-8 assay) ([4]; from 5 μM, in equilibrium with -inine form): 85 % of the control
Immunostaining of occludin and cell nuclei [5]: disrupted cells could be visualized by the absence of nuclei
Enrichment of substance concentration in one compartment [6]: no enrichment
recovery at 48 h, 1 µM [7]: 60%

C[C@@H](CO)NC(=O)[C@@H]1C=C2c3cccc4[nH]cc(c34)C[C@H]2N(C)C1 [EM, ergometrine]
Time before which first traces were not detectable in basolateral compartment ([1]; 10 μM): ≥ 6 h
Time of maximum of permeation into basolateral compartment [1]: 24 h
Maximum of permeation into basolateral compartment [1]: 29%
Papp A→B [2]: 1.05 ×10⁻⁶ cm/s
Papp B→A [2]: 6.05 ×10⁻⁶ cm/s
Concentration in apical compartment, % of the initial concentration ([8]; EM 10 μM a/b with PSC 833 10 μM a/b, after 48 h): 110%
Influence on barrier integrity (TEER) ([3]; 1 μM (a), 24 h): No influence; also recorded: no impact on barrier integrity
Impact on cell viability (CCK-8 assay) [4]: no impact
Transporter substrate property ([9]; concluded from total inhibition by FTC): substrate for BCRP/ABCG2 transporter
Pgp inhibition [10]: Pgp inhibitors
Concentration in apical compartment, % of the initial concentration ([6]; 10 μM a/b, after 24 h): about 117%
Total enrichment in apical compartment ([6]; 10 μM a/b, after 48 h): 130%
Substance in cell lysate ([6]; 10 μM a/b, during the whole experiment (48 h)): no EM was detectable in cell lysate

CN1C[C@H](C(=O)N[C@]2(C)O[C@@]3(O)[C@@H]4CCCN4C(=O)[C@H](Cc4ccccc4)N3C2=O)C=C2c3cccc4[nH]cc(c34)C[C@H]21 [ET, ergotamine]
Time of maximum of permeation into basolateral compartment [1]: 12 h
Maximum of permeation into basolateral compartment [1]: 40%
Papp A→B [2]: 11.9 ×10⁻⁶ cm/s
Papp B→A [2]: 18 ×10⁻⁶ cm/s
efflux ratio at 24 h, 10 μM [2]: < 2
Influence on barrier integrity (TEER) ([3]; 1 μM (a), 24 h): No influence; also recorded: no impact on barrier integrity
Impact on cell viability (CCK-8 assay) [4]: no impact
Detection in CSF ([11]; 18 patients, different application methods): no ergotamine in CSF
Oral bioavailability ([11]; humans, peptide ergot alkaloids like ergotamine): less than 2%
Concentration in cerebrospinal fluid (CSF) ([11]; ten patients): 0.4 ng/mL
Pgp inhibition [10]: Pgp inhibitors
Enrichment of substance concentration in one compartment [6]: no enrichment

COc1ccc2c3c([nH]c2c1)[C@H](C=C(C)C)N1C(=O)[C@@H]2CCCN2C(=O)[C@@H]1C3 [FTC, Fumitremorgin C]
Influence of inhibitor on the transport of EM [9, 13]: total inhibition of the transport process

C/C=C/C[C@@H](C)C(=O)[C@H]1C(=O)N[C@@H](C(C)C)C(=O)N(C)CC(=O)N(C)[C@@H](CC(C)C)C(=O)N[C@@H](C(C)C)C(=O)N(C)[C@@H](CC(C)C)C(=O)N[C@@H](C)C(=O)N[C@H](C)C(=O)N(C)[C@@H](CC(C)C)C(=O)N(C)[C@@H](CC(C)C)C(=O)N(C)[C@@H](C(C)C)C(=O)N1C [PSC, PSC 833]
Influence of inhibitor on the transport of EM [8, 13]: lagging of enrichment in the apical compartment

ergovaline/ ergovalinine
Initial concentration reaching the other compartment [12]: 40%
